Data reported in ChEMBL document CHEMBL1201862, “PubChem BioAssay data set” (2004).
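1) Cells in 96-well plates. 2) Compound, 48 h, 5 concentrations. 3) Linear interpolation between surrounding doses. 4) Unreached endpoint = highest concentration. Here, GI50 denotes the concentration required for 50% inhibition of growth.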 Activity calls are given as the source filed them. No stated cut-off is given here; in the data, active = GI50 up to about 1.1 µM and inactive = higher.

Legend:
Test in all cases: inhibition of tumour cell growth, NCI panel, 48 h
HT-29 = test system: HT-29
SNB-19 = test system: SNB-19
MCF7 = test system: MCF7
ACHN = test system: ACHN
SK-MEL-5 = test system: SK-MEL-5
OVCAR-8 = test system: OVCAR-8
DU-145 = test system: DU-145
OVCAR-4 = test system: OVCAR-4
M14 = test system: M14
MOLT-4 = test system: MOLT-4
HCC 2998 = test system: HCC 2998
RXF 393 = test system: RXF 393
LOX IMVI = test system: LOX IMVI
NCI-H226 = test system: NCI-H226
SF-539 = test system: SF-539
HL-60 = test system: HL-60
A549 = test system: A549
OVCAR-5 = test system: OVCAR-5
SK-MEL-2 = test system: SK-MEL-2
SR = test system: SR

SMILES | GI50 (HT-29) | GI50 (SNB-19) | GI50 (MCF7) | GI50 (ACHN) | GI50 (SK-MEL-5) | GI50 (OVCAR-8) | GI50 (DU-145) | GI50 (OVCAR-4) | GI50 (M14) | GI50 (MOLT-4) | GI50 (HCC 2998) | GI50 (RXF 393) | GI50 (LOX IMVI) | GI50 (NCI-H226) | GI50 (SF-539) | GI50 (HL-60) | GI50 (A549) | GI50 (OVCAR-5) | GI50 (SK-MEL-2) | GI50 (SR)
CCN(CC)/C(Sc1ccccc1)=C(\C(Cl)=C(Cl)Cl)[N+](=O)[O-] | 21.5 µM (inactive) | 20.6 µM (inactive) | 14.9 µM (inactive) | 17.1 µM (inactive) | 14.1 µM (inactive) | 17.2 µM (inactive) | 16.9 µM (inactive) | 33.7 µM (inactive) | 17.3 µM (inactive) | 6.93 µM (inactive) | 19.5 µM (inactive) | 13.6 µM (inactive) | 11 µM (inactive) | 18.5 µM (inactive) | 17.3 µM (inactive) | 1.81 µM (inactive) | 21.7 µM (inactive) |  |  | 
CC/C(Cl)=N\OC(=O)Nc1ccc(OC)cc1 | 6.05 µM (inactive) | 24 µM (inactive) | 5.77 µM (inactive) | 1.92 µM (inactive) | 6.18 µM (inactive) | 15 µM (inactive) | 17.3 µM (inactive) | 16.7 µM (inactive) | 5.19 µM (inactive) | 2.07 µM (inactive) | 5.58 µM (inactive) | 2.15 µM (inactive) | 2.03 µM (inactive) | 12.2 µM (inactive) | 4.89 µM (inactive) | 1.85 µM (inactive) | 17.2 µM (inactive) | 6.11 µM (inactive) | 18.2 µM (inactive) | 
CO/N=C(/C)c1cccc(Nc2nc3ccccc3c3[nH]c4ccccc4c23)c1 | 2.49 µM (inactive) | 12.9 µM (inactive) | 5.16 µM (inactive) | 3.57 µM (inactive) | 5.62 µM (inactive) | 6.22 µM (inactive) | 12.5 µM (inactive) |  | 7.69 µM (inactive) | 3.96 µM (inactive) |  |  | 10.6 µM (inactive) | 13.7 µM (inactive) | 14.4 µM (inactive) | 12.7 µM (inactive) | 8.75 µM (inactive) | 6.82 µM (inactive) | 10.7 µM (inactive) | 5.86 µM (inactive)
CCOc1ccc(Nc2nc3c(s2)C(=O)c2ccccc2C3=O)cc1 |  | 15.7 µM (inactive) | 4.81 µM (inactive) | 14.5 µM (inactive) | 2.27 µM (inactive) |  | 14.2 µM (inactive) | 0.787 µM (active) | 12.2 µM (inactive) | 5.08 µM (inactive) | 17.1 µM (inactive) | 12.8 µM (inactive) | 3.76 µM (inactive) |  | 10.4 µM (inactive) | 3.19 µM (inactive) | 19.5 µM (inactive) | 21.6 µM (inactive) | 15.1 µM (inactive) | 
CC(=O)NNC(=S)N/C=C1/C(=O)C=C(C)OC1=O | > 100 µM (inactive) | > 100 µM (inactive) | > 100 µM (inactive) | > 100 µM (inactive) | > 100 µM (inactive) | > 100 µM (inactive) | > 100 µM (inactive) | > 100 µM (inactive) | > 100 µM (inactive) | > 100 µM (inactive) | > 100 µM (inactive) |  | > 100 µM (inactive) | > 100 µM (inactive) | > 100 µM (inactive) | > 100 µM (inactive) | > 100 µM (inactive) | > 100 µM (inactive) | > 100 µM (inactive) | 
C=CCC1=CC2(OC)C(=O)C(OC)(OC)C1C1C(OC)(OC)C(=O)C(OC)=CC12CC=C (centres undefined) | > 100 µM (inactive) | > 100 µM (inactive) | > 100 µM (inactive) | > 100 µM (inactive) | > 100 µM (inactive) | > 100 µM (inactive) | > 100 µM (inactive) | > 100 µM (inactive) | > 100 µM (inactive) | > 100 µM (inactive) | > 100 µM (inactive) | > 100 µM (inactive) | > 100 µM (inactive) |  | > 100 µM (inactive) | > 100 µM (inactive) | > 100 µM (inactive) | > 100 µM (inactive) | > 100 µM (inactive) | 
c1ccc(SCCP(CCP(c2ccccc2)c2ccccc2)c2ccccc2)cc1 (centres undefined) | 3.47 µM (inactive) | 2.95 µM (inactive) | 14.1 µM (inactive) | 5.02 µM (inactive) | 14 µM (inactive) | 3.06 µM (inactive) | 3.41 µM (inactive) | 6.14 µM (inactive) | 10.5 µM (inactive) | 11.4 µM (inactive) | 12.2 µM (inactive) | 3.9 µM (inactive) |  | 23.1 µM (inactive) | 34.9 µM (inactive) | 2.09 µM (inactive) | 6.17 µM (inactive) | 46.6 µM (inactive) | 3.07 µM (inactive) | 
Cc1ccc2nc(-c3ccccc3)c(N=O)n2c1 | 48 µM (inactive) | 96.4 µM (inactive) | 11.6 µM (inactive) | 46.9 µM (inactive) | 46.3 µM (inactive) | 41 µM (inactive) | 46.6 µM (inactive) | 26.2 µM (inactive) | 68.2 µM (inactive) | 28.4 µM (inactive) |  | > 100 µM (inactive) | 46.5 µM (inactive) | 29.1 µM (inactive) | 29.2 µM (inactive) |  | 32.7 µM (inactive) | 43.5 µM (inactive) | > 100 µM (inactive) | 
CC(=O)Oc1cc(-c2oc3cc(OC(C)=O)c(C4OC(CO)C(O)C(O)C4O)c(OC(C)=O)c3c(=O)c2O)c(OC(C)=O)cc1O (centres undefined) | > 100 µM (inactive) |  | > 100 µM (inactive) | > 100 µM (inactive) | > 100 µM (inactive) | > 100 µM (inactive) | > 100 µM (inactive) | > 100 µM (inactive) | > 100 µM (inactive) | > 100 µM (inactive) | > 100 µM (inactive) | > 100 µM (inactive) | > 100 µM (inactive) | 91.8 µM (inactive) |  | > 100 µM (inactive) | > 100 µM (inactive) | > 100 µM (inactive) | > 100 µM (inactive) | 
COC(=O)/C=C\S/C(=C(/c1ccccc1)n1ccc(C(=O)OC)n1)c1ccccc1 | > 100 µM (inactive) | 12.7 µM (inactive) | 8.77 µM (inactive) | 7.48 µM (inactive) | 29.5 µM (inactive) | 35.9 µM (inactive) |  | 21.9 µM (inactive) | 43.1 µM (inactive) | 56.6 µM (inactive) | 41 µM (inactive) | 13.1 µM (inactive) | > 100 µM (inactive) | > 100 µM (inactive) | 40.2 µM (inactive) | > 100 µM (inactive) | 36.6 µM (inactive) | > 100 µM (inactive) | 15.7 µM (inactive) | > 100 µM (inactive)
COc1cccc(C[C@H]2COC(=O)[C@]2(O)Cc2cccc(OC)c2)c1 | > 100 µM (inactive) | > 100 µM (inactive) |  | > 100 µM (inactive) | 50.9 µM (inactive) | > 100 µM (inactive) | > 100 µM (inactive) | 90.4 µM (inactive) | > 100 µM (inactive) | 53.1 µM (inactive) | 70.8 µM (inactive) |  | > 100 µM (inactive) | > 100 µM (inactive) | > 100 µM (inactive) | 72.6 µM (inactive) | > 100 µM (inactive) | > 100 µM (inactive) | > 100 µM (inactive) | > 100 µM (inactive)
